# Source: patent publication US8592407B2, “Pyrrolo[2,1-c][1,4] benzodiazepine derivatives with dithiocarbamate side chains and process for the preparation thereof” (Council of Scientific & Industrial Research, priority 2008, dated 2013)
# What was measured:
# NCI-H226 = experiment: NCI in vitro cytotoxicity (SRB); assay type: cell-based; conditions: Homo sapiens; Non-smallcell lung NCI-H226; 48 h exposure
# HCT-15 = experiment: NCI in vitro cytotoxicity (SRB); assay type: cell-based; conditions: Homo sapiens; Colon HCT-15; 48 h exposure
# SNB-75 = experiment: NCI in vitro cytotoxicity (SRB); assay type: cell-based; conditions: Homo sapiens; CNS SNB-75; 48 h exposure
# HT29 = experiment: NCI in vitro cytotoxicity (SRB); assay type: cell-based; conditions: Homo sapiens, HT-29; Colon HT29; 48 h exposure
# HCC-2998 = experiment: NCI in vitro cytotoxicity (SRB); assay type: cell-based; conditions: Homo sapiens; Colon HCC-2998; 48 h exposure
# UO-31 = experiment: NCI in vitro cytotoxicity (SRB); assay type: cell-based; conditions: Homo sapiens; Renal UO-31; 48 h exposure
# HOP-92 = experiment: NCI in vitro cytotoxicity (SRB); assay type: cell-based; conditions: Homo sapiens; Non-smallcell lung HOP-92; 48 h exposure
# MOLT-4 = experiment: NCI in vitro cytotoxicity (SRB); assay type: cell-based; conditions: Homo sapiens
# LOX IMVI = experiment: NCI in vitro cytotoxicity (SRB); assay type: cell-based; conditions: Homo sapiens
# UACC-257 = experiment: NCI in vitro cytotoxicity (SRB); assay type: cell-based; conditions: Homo sapiens; Melanoma UACC-257; 48 h exposure
# HS 578T = experiment: NCI in vitro cytotoxicity (SRB); assay type: cell-based; conditions: Homo sapiens; Breast HS 578T; 48 h exposure
# UACC-62 = experiment: NCI in vitro cytotoxicity (SRB); assay type: cell-based; conditions: Homo sapiens; Melanoma UACC-62; 48 h exposure
# EKVX = experiment: NCI in vitro cytotoxicity (SRB); assay type: cell-based; conditions: Homo sapiens; Non-smallcell lung EKVX; 48 h exposure
# OVCAR-5 = experiment: NCI in vitro cytotoxicity (SRB); assay type: cell-based; conditions: Homo sapiens; Ovarian OVCAR-5; 48 h exposure
# SK-MEL-2 = experiment: NCI in vitro cytotoxicity (SRB); assay type: cell-based; conditions: Homo sapiens; Melanoma SK-MEL-2; 48 h exposure
# Colon panel = experiment: NCI screen, panel average; assay type: cell-based, human; conditions: for Log10 GI50 (concentration in mol/L): Colon, average of six to eight cell lines; for LC50: Homo sapiens, read-out: Log10 LC50 (concentration in mol/L causing 50% lethality) (converted)
# MDA-MB-468 = experiment: NCI in vitro cytotoxicity (SRB); assay type: cell-based; conditions: Homo sapiens
# HCT-116 = experiment: NCI in vitro cytotoxicity (SRB); assay type: cell-based; conditions: Homo sapiens
# NCI-H322M = experiment: NCI in vitro cytotoxicity (SRB); assay type: cell-based; conditions: Homo sapiens; Non-smallcell lung NCI-H322M; 48 h exposure
# SW-620 = experiment: NCI in vitro cytotoxicity (SRB); assay type: cell-based; conditions: Homo sapiens
# DU-145 = experiment: NCI in vitro cytotoxicity (SRB); assay type: cell-based; conditions: Homo sapiens
# OVCAR-3 = experiment: NCI in vitro cytotoxicity (SRB); assay type: cell-based; conditions: Homo sapiens
# NCI-H522 = experiment: NCI in vitro cytotoxicity (SRB); assay type: cell-based; conditions: Homo sapiens
# HOP-62 = experiment: NCI in vitro cytotoxicity (SRB); assay type: cell-based; conditions: Homo sapiens
# OVCAR-4 = experiment: NCI in vitro cytotoxicity (SRB); assay type: cell-based; conditions: Homo sapiens; Ovarian OVCAR-4; 48 h exposure
# U251 = experiment: NCI in vitro cytotoxicity (SRB); assay type: cell-based; conditions: Homo sapiens, U-251; CNS U251; 48 h exposure
# Renal panel = experiment: NCI screen, panel average; assay type: cell-based, human; conditions: for LC50 (concentration causing 50% lethality): Homo sapiens, read-out: Log10 LC50 (concentration in mol/L causing 50% lethality) (converted); for Log10 GI50 (concentration in mol/L): Renal, average of six to eight cell lines
# Leukemia panel = experiment: NCI screen, panel average; assay type: cell-based, human; conditions: for LC50 (50% lethal concentration): Homo sapiens, read-out: Log10 LC50 (concentration in mol/L causing 50% lethality) (converted); for Log10 GI50 (concentration in mol/L): Leukemia, average of six to eight cell lines
# TK-10 = experiment: NCI in vitro cytotoxicity (SRB); assay type: cell-based; conditions: Homo sapiens; Renal TK-10; 48 h exposure
# PC-3 = experiment: NCI in vitro cytotoxicity (SRB); assay type: cell-based; conditions: Homo sapiens; Prostate PC-3; 48 h exposure
# RPMI-8226 = experiment: NCI in vitro cytotoxicity (SRB); assay type: cell-based; conditions: Homo sapiens; Leukemia RPMI-8226; 48 h exposure
# CNS panel = experiment: NCI screen, panel average; assay type: cell-based, human; conditions: for Log10 GI50 (concentration in mol/L): CNS, average of six to eight cell lines; for LC50: Homo sapiens, read-out: Log10 LC50 (concentration in mol/L causing 50% lethality) (converted)
# SF-539 = experiment: NCI in vitro cytotoxicity (SRB); assay type: cell-based; conditions: Homo sapiens; CNS SF-539; 48 h exposure
# [1] = test system: Non-small-cell-lung panel; experiment: NCI screen, panel average; assay type: cell-based, human; conditions: for LC50: Homo sapiens, read-out: Log10 LC50 (concentration in mol/L causing 50% lethality) (converted); for Log10 GI50 (concentration in mol/L): Non-small-cell-lung, average of six to eight cell lines
# KM12 = experiment: NCI in vitro cytotoxicity (SRB); assay type: cell-based; conditions: Homo sapiens; Colon KM12; 48 h exposure
# SNB-19 = experiment: NCI in vitro cytotoxicity (SRB); assay type: cell-based; conditions: Homo sapiens; CNS SNB-19; 48 h exposure
# SF-268 = experiment: NCI in vitro cytotoxicity (SRB); assay type: cell-based; conditions: Homo sapiens
# Melanoma panel = experiment: NCI screen, panel average; assay type: cell-based, human; conditions: for LC50: Homo sapiens, read-out: Log10 LC50 (concentration in mol/L causing 50% lethality) (converted); for Log10 GI50 (concentration in mol/L): Melanoma, average of six to eight cell lines
# ACHN = experiment: NCI in vitro cytotoxicity (SRB); assay type: cell-based; conditions: Homo sapiens; Renal ACHN; 48 h exposure
# [2] = Melanoma LOX IMVI, 48 h exposure
# [3] = Breast MDA-MB-468, 48 h exposure
# [4] = Non-smallcell lung NCI-H522, 48 h exposure
# [5] = Non-smallcell lung HOP-62, 48 h exposure
compound,measurement,setting,value
"COc1cc2c(cc1OCCCN1CCN(C(=S)SCCC(C#N)(c3ccccc3)c3ccccc3)CC1)N=C[C@@H]1CCCN1C2=O [Compound 12b, 3-cyano-3,3-diphenylpropyl 4-(3-[(11aS)-7-(methyloxy)-5-oxo-2,3,5,11a-tetrahydro-1H-benzo[e]pyrrolo[1,2-a][1,4]diazepin-8-yl]oxypropyl)hexahydro-1-pyrazinecarbodithioate]",GI50,NCI-H226,1510 nM
same,GI50,HCT-15,1810 nM
same,GI50,SNB-75,1260 nM
same,GI50,HT29,870 nM
same,GI50,HCC-2998,1640 nM
same,GI50,UO-31,1100 nM
same,GI50,HOP-92,1070 nM
same,GI50,"MOLT-4; Leukemia MOLT-4, 48 h exposure",220 nM
same,GI50,MOLT-4; leukemia MOLT-4,220 nM
same,GI50,LOX IMVI; [2],600 nM
same,GI50,LOX IMVI; melanoma LOX IMVI,600 nM
same,GI50,UACC-257,2000 nM
same,GI50,HS 578T,560 nM
same,GI50,UACC-62,1060 nM
same,GI50,EKVX,2290 nM
same,GI50,OVCAR-5,1350 nM
same,GI50,SK-MEL-2,1160 nM
same,Log10 GI50 (concentration in mol/L),Colon panel,−6.02 mol/L
same,LC50,Colon panel,8510 nM
same,GI50,"MDA-MB-468; MDA-MB-468, breast MDA-MEI-468",280 nM
same,GI50,MDA-MB-468; [3],280 nM
same,GI50,"HCT-116; Colon HCT-116, 48 h exposure",380 nM
same,GI50,HCT-116; colon cancer HCT-116,380 nM
same,GI50,NCI-H322M,1870 nM
same,GI50,"SW-620; Colon SW-620, 48 h exposure",510 nM
same,GI50,SW-620; colon cancer SW-620,510 nM
same,GI50,"DU-145; Prostate DU-145, 48 h exposure",260 nM
same,GI50,DU-145; prostate DU-145,260 nM
same,GI50,"OVCAR-3; Ovarian OVCAR-3, 48 h exposure",280 nM
same,GI50,OVCAR-3; ovarian OVCAR-3,280 nM
same,GI50,NCI-H522; [4],170 nM
same,GI50,NCI-H522; non-small cell lung NCI-H522,170 nM
same,GI50,HOP-62; [5],120 nM
same,GI50,HOP-62; non-small cell lung HOP-62,210 nM
same,GI50,OVCAR-4,2110 nM
same,GI50,U251,390 nM
same,LC50 (concentration causing 50% lethality),Renal panel,4070 nM
same,Log10 GI50 (concentration in mol/L),Renal panel,−6.20 mol/L
same,LC50 (50% lethal concentration),Leukemia panel,55000 nM
same,Log10 GI50 (concentration in mol/L),Leukemia panel,−6.63 mol/L
same,GI50,TK-10,650 nM
same,GI50,PC-3,340 nM
same,GI50,RPMI-8226,220 nM
same,Log10 GI50 (concentration in mol/L),CNS panel,−6.12 mol/L
same,LC50,CNS panel,4470 nM
same,GI50,SF-539,1440 nM
same,LC50,[1],11000 nM
same,Log10 GI50 (concentration in mol/L),[1],−6.07 mol/L
same,GI50,KM12,1070 nM
same,GI50,SNB-19,1230 nM
same,GI50,"SF-268; SF-268, CNS SF268",280 nM
same,GI50,"SF-268; CNS SF-268, 48 h exposure",280 nM
same,LC50,Melanoma panel,5500 nM
same,Log10 GI50 (concentration in mol/L),Melanoma panel,−5.94 mol/L
same,GI50,ACHN,940 nM
"COc1cc2c(cc1OCCCCN1CCN(C(=S)SCCC(C#N)(c3ccccc3)c3ccccc3)CC1)N=C[C@@H]1CCCN1C2=O [Compound 12c, 3-cyano-3,3-diphenylpropyl 4-(4-[(11aS)-7-(methyloxy)-5-oxo-2,3,5,11a-tetrahydro-1H-benzo[e]pyrrolo[1,2-a][1,4]diazepin-8-yl]oxybutyl)hexahydro-1-pyrazinecarbodithioate]",GI50,NCI-H226,1260 nM
same,GI50,HCT-15,1410 nM
same,GI50,SNB-75,1640 nM
same,GI50,HT29,1130 nM
same,GI50,HCC-2998,1570 nM
same,GI50,UO-31,590 nM
same,GI50,HOP-92,1070 nM
same,GI50,"MOLT-4; Leukemia MOLT-4, 48 h exposure",350 nM
same,GI50,LOX IMVI; [2],690 nM
same,GI50,UACC-257,1970 nM
same,GI50,HS 578T,720 nM
same,GI50,UACC-62,1320 nM
same,GI50,EKVX,1880 nM
same,GI50,OVCAR-5,2470 nM
same,GI50,SK-MEL-2,1040 nM
same,Log10 GI50 (concentration in mol/L),Colon panel,−5.93 mol/L
same,LC50,Colon panel,72400 nM
same,GI50,MDA-MB-468; [3],490 nM
same,GI50,"HCT-116; Colon HCT-116, 48 h exposure",540 nM
same,GI50,NCI-H322M,1400 nM
same,GI50,"SW-620; Colon SW-620, 48 h exposure",1120 nM
same,GI50,"DU-145; Prostate DU-145, 48 h exposure",1470 nM
same,GI50,"OVCAR-3; Ovarian OVCAR-3, 48 h exposure",1200 nM
same,GI50,NCI-H522; [4],190 nM
same,GI50,HOP-62; [5],710 nM
same,GI50,OVCAR-4,1820 nM
same,GI50,U251,1110 nM
same,LC50 (concentration causing 50% lethality),Renal panel,15100 nM
same,Log10 GI50 (concentration in mol/L),Renal panel,−6.05 mol/L
same,LC50 (50% lethal concentration),Leukemia panel,100000 nM
same,Log10 GI50 (concentration in mol/L),Leukemia panel,−6.26 mol/L
same,GI50,TK-10,1260 nM
same,GI50,PC-3,690 nM
same,GI50,RPMI-8226,490 nM
same,Log10 GI50 (concentration in mol/L),CNS panel,−5.84 mol/L
same,LC50,CNS panel,7590 nM
same,GI50,SF-539,1690 nM
same,LC50,[1],38900 nM
same,Log10 GI50 (concentration in mol/L),[1],−5.97 mol/L
same,GI50,KM12,1390 nM
same,GI50,SNB-19,1670 nM
same,GI50,"SF-268; CNS SF-268, 48 h exposure",1230 nM
same,LC50,Melanoma panel,7410 nM
same,Log10 GI50 (concentration in mol/L),Melanoma panel,−5.90 mol/L
same,GI50,ACHN,1160 nM
